Test results published in patent US5624923A, “Tricyclic diazepine vasopressin antagonists and oxytocin antagonists” (priority 1995, dated 1997).
Read-outs that look alike come from different tables or passages of the source. Values belong to the molecule of their own block, whether it stands above or below them.

Key:
[1] = target: T1, Rat Kidney Medullary V2 Receptors (Rattus norvegicus, UniProt Q00788); assay: Binding Assay to Rat Kidney Medullary V2 Receptors
T1 construct: Medullary tissues from rat kidneys are dissected out; from tissue; host or cells: rat kidney medulla membranes
Description: Binding Assay to Rat Kidney Medullary V2 Receptors
Medullary tissues from rat kidneys are dissected out, cut into small pieces and soaked in a […] sodium chloride solution containing 1.0 mM EDTA with many changes of the liquid phase, until the solution is clear of blood. The tissue is homogenized in a 0.25M sucrose solution containing 1.0 mM EDTA and 0.1 mM PMSF using a Potter-Elvehjem homogenizer with a teflon pestle. The homogenate is filtered through several layers (4 layers) of cheese cloth. The filtrate is rehomogenized using a dounce homogenizer, with a tight fitting pestle. The final homogenate is centrifuged at 1500× g for 15 min. The nuclear pellet is discarded and the supernatant fluid recentrifuged at 40,000× g for 30 min. The resulting pellet formed contains a dark inner part with the exterior., slightly pink. The pink outer part is suspended in a small amount of 50.0 mM Tris. HCl buffer, pH 7.4. The protein content is determined by the Lowry's method (Lowry et al., J. Biol. Chem., 1953). The membrane suspension is stored at -70° C. in 50.0 mM Tris HCl, containing 0.2% inactivated BSA and 0.1 mM PMSF in aliquots of 1.0 ml containing 10.0 mg protein per ml of suspension until use in subsequent binding experiments.
(§1) The plates are left undisturbed on the bench top for 120 min to reach equilibrium. Non-specific binding is assessed in the presence of 1.0 μM of unlabeled ligand, added in 20 μl volume. For test compounds, these are solubilized in 50% dimethylsulfoxide (DMSO) and added in 20.0 μl volume to a final incubation volume of 200 μl. Upon completion of binding, the content of each well is filtered off, using a Brandel® cell Harvester (Gaithersburg, Md.). The radioactivity trapped on the filter disk by the ligand-receptor complex is assessed by liquid scintillation counting in a Packard LS Counter, with an efficiency of 65% for tritium. The data are analyzed for IC50 values by the LUNDON-2 program for competition (LUNDON SOFTWARE, Ohio).

Vasopressin V1 = Vasopressin V1 Antagonist Activity in Conscious Rats (vasopressin vasopressor response); assay type: in vivo, rat; set-up: Average Change: unit not given here; settings: 10 mg/kg i.v., SHR
Description: Vasopressin V1 Antagonist Activity in Conscious Rats
Conscious rats are restrained in a supine position with elastic tape. The area at the base of the tail is locally anesthetized by subcutaneous infiltration with 2% procaine (0.2 ml). Using aseptic technique the ventral caudal tail artery is isolated and a cannula made of PE 10 and 20 (heat-fused) tubing is passed into the lower abdominal aorta. The cannula is secured, heparinized (1000 i.u./cc), sealed and the wound closed with one or two stitches of Dexon 4-0. The caudal vein is also cannulated in the same manner for intravenous drug administration. The duration of the surgery is approximately 5 minutes. Additional local anesthesia (2% procaine or lidocaine) is provided as needed.
The animals are placed in plastic restraining cages in an upright position. The cannula is attached to a Statham P23Db pressure transducer and pulsatile blood pressure is recorded. […] The vasopressin injections are repeated 30,60,90,120,180,240 and 300 min. later. Percentage of antagonism by the compound is calculated using the pre-drug vasopressin vasopressor response as 100%.

Rat Hepatic V1 Receptors = target: T2, Rat Hepatic V1 Receptors (Rattus norvegicus, UniProt P30560); assay: Binding Assay to Rat Hepatic V1 Receptors
T2 construct: Rat liver plasma membranes expressing the vasopressin V1 receptor subtypes; from tissue; host or cells: rat liver plasma membranes
Description: Binding Assay to Rat Hepatic V1 Receptors
Rat liver plasma membranes expressing the vasopressin V1 receptor subtypes are isolated by sucrose density gradient according to the method described by Lesko et al., (1973). These membranes are quickly suspended in 50.0 mM Tris.HCl buffer, pH 7.4, containing 0.2% bovine serum albumin (BSA) and 0.1 mM phenylmethylsulfonylfluoride (PMSF) and kept frozen at -70° C. until used in subsequent binding experiments. For binding experiments, the following is added to the wells of a ninety-six well format microtiter plate: 100 μl of 100.0 mM Tris.HCl buffer containing 10.0 mM MgCl2, 0.2% heat inactivated BSA and a mixture of protease inhibitors: leupeptin, 1.0 mg %; aprotinin, 1.0 mg %; 1,10-phenanthroiine,2.0 mg %; trypsin inhibitor, 10.0 mg % and 0.1 mM PMSF, 20.0 μl of [phenylalanyl-3,4,5, -^3 H] vasopressin (S.A. 45.1 Ci/mmole) at 0.8 nM, and the reaction initiated by the addition of 80 μl of tissue membranes containing 20 μg of tissue protein. The plates are kept undisturbed on the bench top at room temperature for 120 min. to reach equilibrium. Non-specific samples are assayed in the presence of 0.1 μM of the unlabeled antagonist phenylalanylvasopressin, added in 20.0 μl volume.
as §1, with “For” for “The plates are left undisturbed on the bench top for 120 min to reach equilibrium. Non-specific binding is assessed in the presence of 1.0 μM of unlabeled ligand, added in 20 μl volume. For”, “μl .” for “μl.”

[2] = rat kidney medulla membranes, read-out: V2 IC50
[3] = rat liver membranes, read-out: V1 IC50

T2 sequence (P30560 whole entry): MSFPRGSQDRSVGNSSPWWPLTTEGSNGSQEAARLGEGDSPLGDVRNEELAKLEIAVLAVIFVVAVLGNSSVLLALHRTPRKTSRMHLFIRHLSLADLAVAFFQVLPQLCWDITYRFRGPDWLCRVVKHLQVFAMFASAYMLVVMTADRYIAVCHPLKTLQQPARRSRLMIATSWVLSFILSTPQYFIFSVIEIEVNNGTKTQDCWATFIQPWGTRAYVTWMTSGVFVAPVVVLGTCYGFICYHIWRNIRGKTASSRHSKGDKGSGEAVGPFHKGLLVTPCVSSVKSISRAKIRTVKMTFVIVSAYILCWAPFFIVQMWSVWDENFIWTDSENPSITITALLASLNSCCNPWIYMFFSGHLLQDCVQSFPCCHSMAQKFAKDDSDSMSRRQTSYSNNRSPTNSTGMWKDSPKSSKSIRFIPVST
T1 sequence (Q00788 whole entry): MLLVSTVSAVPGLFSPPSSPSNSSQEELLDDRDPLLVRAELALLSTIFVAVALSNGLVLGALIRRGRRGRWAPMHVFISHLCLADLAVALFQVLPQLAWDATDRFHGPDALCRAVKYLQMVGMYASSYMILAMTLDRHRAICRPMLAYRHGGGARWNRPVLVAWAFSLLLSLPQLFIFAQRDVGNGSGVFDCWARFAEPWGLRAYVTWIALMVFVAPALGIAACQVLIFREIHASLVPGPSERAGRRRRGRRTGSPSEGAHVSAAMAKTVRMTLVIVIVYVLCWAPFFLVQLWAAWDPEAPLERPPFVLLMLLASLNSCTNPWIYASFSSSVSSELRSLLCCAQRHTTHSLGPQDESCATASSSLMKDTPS

Structure (SMILES): Cc1ccccc1C(=O)Nc1ccc(C(=O)N2Cc3ccc(CN4CCCCC4)n3Cc3ccccc32)cc1 [Example 661, N-[4-[[3-(1-piperidinylmethyl)-5H-pyrrolo[2,1-c][1,4]benzodiazepin-10(11H)-yl]carbonyl]phenyl]-2-methyl-benzamide]
IC50 [1, 2]: 0.057 µM
IC50 (Rat Hepatic V1 Receptors; [3]): 0.057 µM

Structure (SMILES): CCOc1ccccc1C(=O)Nc1ccc(C(=O)N2Cc3cccn3Cc3ccccc32)cc1 [Example 84, N-[4-(5H-Pyrrolo[2,1-c][1,4]benzodiazepin-10(11H)-ylcarbonyl)phenyl]-2-ethoxybenzamide]
IC50 [1, 2]: 0.077 µM
% Inhibition (Vasopressin V1; VAS 0.01 i.u./kg, 30 min): 77%
Average Change (Vasopressin V1; VAS 0.01 i.u./kg, 30 min): 10.5
% Inhibition (Vasopressin V1; VAS 0.01 i.u./kg, 60 min): 64%
Average Change (Vasopressin V1; VAS 0.01 i.u./kg, 60 min): 16.5
% Inhibition (Vasopressin V1; VAS 0.01 i.u./kg, 90 min): 72%
Average Change (Vasopressin V1; VAS 0.01 i.u./kg, 90 min): 13
% Inhibition (Vasopressin V1; VAS 0.01 i.u./kg, 120 min): 58%
Average Change (Vasopressin V1; VAS 0.01 i.u./kg, 120 min): 19.5
% Inhibition (Vasopressin V1; VAS 0.01 i.u./kg, 180 min): 47%
Average Change (Vasopressin V1; VAS 0.01 i.u./kg, 180 min): 24.5
% Inhibition (Vasopressin V1; VAS 0.01 i.u./kg, 240 min): 43%
Average Change (Vasopressin V1; VAS 0.01 i.u./kg, 240 min): 26
% Inhibition (Vasopressin V1; VAS 0.01 i.u./kg, 300 min): 51%
Average Change (Vasopressin V1; VAS 0.01 i.u./kg, 300 min): 22.5
% Inhibition (Vasopressin V1; VAS 0.02 i.u./kg, 30 min): 76%
Average Change (Vasopressin V1; VAS 0.02 i.u./kg, 30 min): 14.5
% Inhibition (Vasopressin V1; VAS 0.02 i.u./kg, 60 min): 45%
Average Change (Vasopressin V1; VAS 0.02 i.u./kg, 60 min): 33.5
% Inhibition (Vasopressin V1; VAS 0.02 i.u./kg, 90 min): 57%
Average Change (Vasopressin V1; VAS 0.02 i.u./kg, 90 min): 26
% Inhibition (Vasopressin V1; VAS 0.02 i.u./kg, 120 min): 47%
Average Change (Vasopressin V1; VAS 0.02 i.u./kg, 120 min): 32.5
% Inhibition (Vasopressin V1; VAS 0.02 i.u./kg, 180 min): 48%
Average Change (Vasopressin V1; VAS 0.02 i.u./kg, 180 min): 31.5
% Inhibition (Vasopressin V1; VAS 0.02 i.u./kg, 240 min): 39%
Average Change (Vasopressin V1; VAS 0.02 i.u./kg, 240 min): 37
% Inhibition (Vasopressin V1; VAS 0.02 i.u./kg, 300 min): 30%
Average Change (Vasopressin V1; VAS 0.02 i.u./kg, 300 min): 43
IC50 (Rat Hepatic V1 Receptors; [3]): 0.045 µM

Structure (SMILES): O=C(c1ccc(NP(=O)(Oc2ccccc2)Oc2ccccc2)cc1)N1Cc2cccn2Cc2ccccc21 [Example 492]
IC50 [1]: 3.2 µM
IC50 (Rat Hepatic V1 Receptors): 0.16 µM

Structure (SMILES): O=C(c1ccc(NS(=O)(=O)Cc2ccccc2)cc1)N1Cc2cccn2Cc2ccccc21 [Example 494, 10-[4-[[(Phenylmethyl)sulfonyl]amino]benzoyl]-10,11-dihydro-5H-pyrrolo[2,1-c][1,4]benzodiazepine]
IC50 [1, 2]: 5.8 µM
IC50 (Rat Hepatic V1 Receptors; [3]): 0.11 µM

Structure (SMILES): O=C(Nc1ccc(C(=O)N2Cc3cccn3Cc3ccccc32)c(Cl)c1)c1cccc(C(F)(F)F)c1F [Example 699, N-[4-(5H-pyrrolo[2,1-c][1,4]benzodiazepin-10(11H)-ylcarbonyl)-3-chloro-phenyl]-2-fluoro-3-(trifluoromethyl)benzamide]
inhibition at 1 µM ([1]; 1 μM, rat): 100%
inhibition at 1 µM (Rat Hepatic V1 Receptors; 2 h, 1 μM, rat): 19%

Structure (SMILES): Cc1ccccc1C(=O)Nc1ccc(C(=O)N2Cc3ccc(CN(C)C)n3Cc3ccccc32)cc1 [Example 660]
IC50 [1, 2]: 0.064 µM
IC50 (Rat Hepatic V1 Receptors; [3]): 0.073 µM

Structure (SMILES): Cc1ccccc1C(=O)Nc1ccc(C(=O)N2Cc3ccc(CN4CCN(Cc5ccccc5)CC4)n3Cc3ccccc32)cc1 [Example 663, N-[4-[[3-[[4-(phenylmethyl)-1-piperazinyl]methyl]-5H-pyrrolo[2,1-c][1,4]-benzodiazepin-10(11H)-yl]carbonyl]-phenyl]-2-methylbenzamide]
IC50 [1, 2]: 0.025 µM
IC50 (Rat Hepatic V1 Receptors; [3]): 0.009 µM

Structure (SMILES): Cc1ccccc1C(=O)Nc1ccc(C(=O)N2Cc3ccc(CN4CCOCC4)n3Cc3ccccc32)cc1 [Example 662, N-[4-[[3-(4-morpholinomethyl)-5H-pyrrolo[2,1-c][1,4]benzodiazepin-10(11H)-yl]carbonyl]phenyl]-2-methyl-benzamide]
IC50 [1, 2]: 0.035 µM
IC50 (Rat Hepatic V1 Receptors; [3]): 0.04 µM

Structure (SMILES): CC(=O)c1ccc2n1Cc1ccccc1N(C(=O)c1ccc(NC(=O)c3ccc(Cl)cc3Cl)cc1)C2 [Example 670, N-[4-[(3-Acetyl-5H-pyrrolo[2,1-c][1,4]benzodiazepin-10(11H)-yl]carbonyl]phenyl]-2,4-dichlorobenzamide]
IC50 [1, 2]: 0.29 µM
IC50 (Rat Hepatic V1 Receptors; [3]): 1.1 µM

Second part, led by results:

IC50 [1, 2]: 0.022 µM
IC50 (Rat Hepatic V1 Receptors; [3]): 0.026 µM
Structure (SMILES): O=C(Nc1ccc(C(=O)N2Cc3cccn3Cc3ccccc32)cc1)c1ccccc1C(F)(F)F [Example 91, N-[4-(5H-Pyrrolo[2,1-c][1,4]benzodiazepin-10(11H)-ylcarbonyl)phenyl]-2-(trifluoromethyl)benzamide]
% Inhibition (Vasopressin V1; VAS 0.01 i.u./kg, 30 min): 90%
Average Change (Vasopressin V1; VAS 0.01 i.u./kg, 30 min): 5
% Inhibition (Vasopressin V1; VAS 0.01 i.u./kg, 60 min): 87%
Average Change (Vasopressin V1; VAS 0.01 i.u./kg, 60 min): 6.5
% Inhibition (Vasopressin V1; VAS 0.01 i.u./kg, 90 min): 81%
Average Change (Vasopressin V1; VAS 0.01 i.u./kg, 90 min): 9
% Inhibition (Vasopressin V1; VAS 0.01 i.u./kg, 120 min): 73%
Average Change (Vasopressin V1; VAS 0.01 i.u./kg, 120 min): 13
% Inhibition (Vasopressin V1; VAS 0.01 i.u./kg, 180 min): 55%
Average Change (Vasopressin V1; VAS 0.01 i.u./kg, 180 min): 22
% Inhibition (Vasopressin V1; VAS 0.01 i.u./kg, 240 min): 59%
Average Change (Vasopressin V1; VAS 0.01 i.u./kg, 240 min): 20
% Inhibition (Vasopressin V1; VAS 0.01 i.u./kg, 300 min): 66%
Average Change (Vasopressin V1; VAS 0.01 i.u./kg, 300 min): 16.5
% Inhibition (Vasopressin V1; VAS 0.02 i.u./kg, 30 min): 88%
Average Change (Vasopressin V1; VAS 0.02 i.u./kg, 30 min): 7.5
% Inhibition (Vasopressin V1; VAS 0.02 i.u./kg, 60 min): 89%
Average Change (Vasopressin V1; VAS 0.02 i.u./kg, 60 min): 7
% Inhibition (Vasopressin V1; VAS 0.02 i.u./kg, 90 min): 80%
Average Change (Vasopressin V1; VAS 0.02 i.u./kg, 90 min): 12.5
% Inhibition (Vasopressin V1; VAS 0.02 i.u./kg, 120 min): 72%
Average Change (Vasopressin V1; VAS 0.02 i.u./kg, 120 min): 17.5
% Inhibition (Vasopressin V1; VAS 0.02 i.u./kg, 180 min): 54%
Average Change (Vasopressin V1; VAS 0.02 i.u./kg, 180 min): 29
% Inhibition (Vasopressin V1; VAS 0.02 i.u./kg, 240 min): 53%
Average Change (Vasopressin V1; VAS 0.02 i.u./kg, 240 min): 29.5
% Inhibition (Vasopressin V1; VAS 0.02 i.u./kg, 300 min): 48%
Average Change (Vasopressin V1; VAS 0.02 i.u./kg, 300 min): 32.5

IC50 [1, 2]: 0.12 µM
IC50 (Rat Hepatic V1 Receptors; [3]): 2.4 µM
Structure (SMILES): Cc1ccccc1C(=O)Nc1ccc(C(=O)N2Cc3cccn3C(=O)c3ccccc32)cc1 [Example 40, 2-Methyl-N-[4-[(5-oxo-5H-pyrrolo[2,1-c]-[1,4]benzodiazepin 10(11H)-yl)carbonyl]phenyl]benzamide]

IC50 [1, 2]: 0.35 µM
IC50 (Rat Hepatic V1 Receptors; [3]): 0.165 µM
Structure (SMILES): Cc1ccc(C(=O)Nc2ccc(C(=O)N3Cc4cccn4Cc4ccccc43)cc2)s1 [Example 355, N-[4-(5H-Pyrrolo[2,1-c][1,4]benzodiazepin-10(11)ylcarbonyl)phenyl]-5-methyl-2-thiophenecarboxamide]

inhibition at 10 µM ([1]; 10 μM, rat): 68%
IC50 (Rat Hepatic V1 Receptors; [3]): 0.14 µM
Structure (SMILES): O=C(c1ccc(NS(=O)(=O)c2cc(Cl)ccc2Cl)cc1)N1Cc2cccn2Cc2ccccc21 [Example 493, 10-[4-[[(2,5-Dichlorophenyl)sulfonyl]amino]benzoyl]-10,11-dihydro-5H-pyrrolo[2,1-c][1,4]benzodiazepine]
